Source: PubChem BioAssay (NCI)
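Interpolation was linear, between the two tested concentrations surrounding the appropriate level; five concentrations were tested over 48 hours in 96-well plates. Definition used: TGI = concentration required for complete inhibition of growth.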

Legend:
Assay in all cases: DTP human tumour cell line panel, 48 h
[1] = test system: BT-549 breast
[2] = test system: HS 578T breast
[3] = test system: NCI/ADR-RES ovarian
[4] = test system: U251 CNS
[5] = test system: UACC-257 melanoma
[6] = test system: MDA-MB-231 breast
[7] = test system: DLD-1 colon
[8] = test system: M19-MEL melanoma

Structure (SMILES) | TGI [1] [µM] | TGI [2] [µM] | TGI [3] [µM] | TGI [4] [µM] | TGI [5] [µM] | TGI [6] [µM] | TGI [7] [µM] | TGI [8] [µM]
[N-]=[N+]=NC1=C(c2ccccc2)C(=O)c2cccc3cccc1c23 | 34.1 | 48.6 | > 100 | > 100 | 29.2 |  |  | 
CC(NC(=O)C(N)CC(=O)O)NC(=O)N1CCCC1 (configuration not stated) | > 100 | > 100 | > 100 | > 100 | > 100 | > 100 |  | 
Cn1cnc([N+](=O)[O-])c1Sc1nc(N)nc2c1ncn2Cc1ccccc1 | 57.2 | 86.5 | > 100 | 60.1 | 30.1 | 41.3 |  | 
CCCCCCCCCCCCP(=O)(O)OCC(N)C(=O)O (configuration not stated) | > 100 | 58.2 | > 100 | 24.8 | > 100 | 65.3 |  | 
COc1c(O)cc(C(=O)O[C@@H]2Cc3c(O)cc(O)cc3O[C@@H]2c2cc(O)c(O)c(O)c2)cc1O | 65.2 | > 100 | > 100 |  | > 100 |  |  | 
COc1cc(OC)nc(Nc2c(C#N)c3nc4ccccc4n3c3ccccc23)n1 | 63 | > 100 | > 100 | > 100 | > 100 |  |  | 
COC1(C)C=NCC(C)(C)NC(=O)C(C)(OC)C=NCC(C)(C)NC1=O (configuration not stated) | > 10 | > 10 | > 10 | > 10 | > 10 | > 10 |  | 
CC1(C)OC(=S)N(c2ccccc2)C12C=Cc1cc3ccccc3cc1O2 (configuration not stated) | > 100 | > 100 | > 100 | > 100 | > 100 | > 100 |  | 
COc1cccc(-n2c(N)c(-c3nc4cc(C(F)(F)F)ccc4s3)c3ccc([N+](=O)[O-])cc3c2=O)c1 | > 100 |  | > 100 | > 100 | > 100 | > 100 |  | 
O=C(Nc1c(Cl)cc([N+](=O)[O-])cc1Cl)/C(=N\Nc1cccc(Cl)c1)c1c(O)c2ccccc2oc1=O |  |  |  |  | > 100 |  | > 100 | > 100
CCNc1ncnc2n[nH]nc12 |  |  | > 100 | > 100 | > 100 | > 100 |  | 
O=C1O[C@H]2[C@@H]3OC(=O)c4cc(O)c(O)c(O)c4-c4c(cc(O)c(O)c4O)C(=O)OC[C@H]2O[C@@H](OC(=O)c2cc(O)c(O)c(O)c2)[C@@H]3OC(=O)c2cc(O)c(O)c3c2[C@@H]2C1=CC(=O)C(O)(O)C2(O)O3 (some centres not stated) | > 100 | > 100 | > 100 | 33.5 | > 100 | 40.2 |  | 
NC(CCCCNC(=O)C(Cc1ccccc1)NC(=O)OCc1ccccc1)C(=O)NC(CCCCNC(=O)C(Cc1ccccc1)NC(=O)OCc1ccccc1)C(=O)NC(CCCCNC(=O)C(Cc1ccccc1)NC(=O)OCc1ccccc1)C(=O)NC(CCCCNC(=O)C(Cc1ccccc1)NC(=O)OCc1ccccc1)C(=O)NC(CCCCNC(=O)C(Cc1ccccc1)NC(=O)OCc1ccccc1)C(=O)NC(CCCCNC(=O)C(Cc1ccccc1)NC(=O)OCc1ccccc1)C(=O)O (configuration not stated) | > 100 |  |  | > 100 | > 100 | > 100 |  | 
CC(=O)Nc1ccc(-c2nc3ccccc3s2)cc1O |  | > 100 | 64.4 | > 100 | > 100 | > 100 |  | 
CCOP(C)(=O)C(Nc1ccc(F)cc1)c1ccc(F)cc1 (configuration not stated) |  | > 100 | > 100 | > 100 | > 100 | > 100 |  | 
N=c1oc2c(Cl)cc(Cl)cc2cc1C(=O)Nc1ccccn1 | > 100 | 48.4 | > 100 | > 100 | > 100 | > 100 |  | 
